Laboratory results: paper PMC13492380, “Dissecting Structural and Functional Determinants of Microtubules Stabilization through Guided Chemical Modulation” (Journal of Medicinal Chemistry, 2026)

What was measured:
[1] = test system: human Kif5B 1–905-EGFP on stabilized MTs; assay: Single-molecule kinesin-1 motility assay on stabilized MTs (TIRF); assay type: biochemical; conditions: 1.08 nM Kif5b-EGFP, 10 μM drug
Protocol: To gain mechanistic insight into the kinesin phenotype observed in cells, we reduced system complexity using an in vitro reconstitution assay. Specifically, we performed time-lapse imaging using total internal reflection fluorescence (TIRF) microscopy with immobilized and stabilized MTs in a flow chamber, into which we introduced 1.08 nM kinesin-1 motors (constitutively active human Kif5B 1–905-EGFP). We then analyzed individual kinesin movements to quantify landing rates (number of motors per unit MT length per unit time), run lengths, interaction times, and average velocities (Figure D, Movies S12–S15). In contrast to our experiments in cells, here we evaluated each structural modification individually to dissect the effects of MT lattice parameters on kinesin-1 mediated transport.
(§1) Total Internal Reflection Fluorescence microscopy experiments were performed on an inverted widefield microscope Nikon-Ti2 E, equipped with a motorized XY-stage, a perfect focus system, Apo TIRF 60× oil NA 1.49 objective and PRIME BSY (Teledyne Photometrics) camera. MTs were visualized using Interference Reflection microscopy (IRM) and fluorescently labeled proteins were visualized sequentially by switching between microscope filter cubes for GFP and mCherry channels. The microscopes were controlled using NIS Elements software (Nikon). All experiments were conducted at RT.
(§2) Microscopy chambers were prepared from two sandwiched silanized glass coverslips (22 × 22 mm^2 and 18 × 18 mm^2) attached through parafilm strips (heated for 15–20 s at 60 °C and gently pressed together) to form ∼2.5 mm wide parallel flow channels. Prior to the chamber assembly, the coverslips were washed in 3 M KOH, cleaned using Zepto plasma cleaner (Diener electronic) and silanized with hexamethyldisilazane. Flow channels were first incubated with 40 μgml^–1 antibiotin antibodies (Sigma, B3640) in PBS for 10 min, followed by incubation with 1% Pluronic F127 (Sigma-Aldrich, P2443) in PBS for at least 1 h. F127 was washed with BRB80 (80 mM PIPES, 1 mM EGTA, 1 mM MgCl2, pH 6.9).
(§3) Porcine brain tubulin was isolated using the high-molarity PIPES procedure then mixed with Biotin labeled tubulin (Cytoskeleton Inc., T333P) in 1:49 ratio. All MTs were polymerized using 2% biotin-labeled tubulin. […] Polymerized MTs were centrifuged for 30 min at 18,000g in a Microfuge 18 Centrifuge (Beckman Coulter’s). […] Drug stabilized preassembly MTs (polymerized in the presence of drugs and GTP, stored and imaged in presence of drug) were polymerized from 4 mg mL^–1 biotinylated tubulin for 30 min at 37 °C in BRB80 supplemented with 4 mM MgCl2, 40 μM drug of interest in 5% DMSO, and 1 mM GTP. Polymerized MTs were centrifuged for 30 min at 18,000g in a Microfuge 18 Centrifuge (Beckman Coulter’s). […] GMPCPP stabilized MTs (GMPCPP polymerized) were assembled from 4 mg mL^–1 biotinylated tubulin for 2 h at 37 °C in BRB80 supplemented with 1 mM MgCl2 and 1 mM GMPCPP (Jena Bioscience, NU-405). Polymerized MTs were centrifuged for 30 min at 18,000g in a Microfuge 18 Centrifuge (Beckman Coulter’s) and pellets were resuspended and kept in BRB80.
(§4) Stabilized MTs were flushed into the channel and incubated for 15–30 s to allow for surface attachment. Unbound MTs were removed by washing with BRB80 supplemented with 10 μM of drug. Prior the experiment, the solution was exchanged by motility buffer, MB (BRB80 containing 10 mM DTT, 20 mM D-glucose, 0.1% Tween-20, 0.5 mg/mL casein, 1 mM Mg-ATP, 0.02 mg/mL catalase, 0.22 mg/mL glucose oxidase, 10 μM drug). Subsequently, a solution containing either 1.08 nM Kif5b-EGFP or 10/40 nM mCherry-Tau in MB was introduced into the chamber.
To assess kinesin-EGFP motility along MTs, an IRM image (50 ms exposure) was acquired followed by a 1 min video using 488 nm laser excitation (20% laser intensity, 300 ms exposure) with no delay. Two to three videos were recorded from different fields within the same channel and at least 2 channels were measure for each experimental condition. […]

[2] = test system: Tau-mCherry (Tau 441 isoform) on stabilized MTs from porcine brain tubulin; assay: Tau-mCherry binding to stabilized MTs (TIRF); assay type: biochemical; conditions: 40 nM Tau-mCherry
Excerpt: Previous studies in vitro have shown that Tau molecules strongly prefer compacted GDP lattices. Tau binds cooperatively to MT surfaces, resulting in a cohesive layer depending on tau-tau interactions, termed MT envelope, which selectively regulates access to MT lattices, and shields MTs from severing enzymes. − On expanded PTX-MTs, Tau envelope also forms and the lattice can get locally compacted. To further explore how MT lattice structure influences Tau binding, we employed an in vitro reconstitution assay. We deposited stabilized MTs in a flow chamber, and visualized them via interference reflection microscopy (Figure C). We then added 10 nM Tau-mCherry (labeled purified Tau 441 isoform at the C-terminus with mCherry) and monitored its association with MTs using time-lapse TIRF microscopy. After 4 min, we increased Tau concentration to 40 nM, and continued imaging for an additional 4 min. We measured fluorescence intensities along MTs to quantify Tau binding (Movies S16–S27). […] PTXpost-MTs also supported […] faster envelope growth (0.20 ± 0.02 μm/s versus 0.054 ± 0.006 μm/s for PTXpre-MTs, Figure H).
as §1, §2, §3
as §4, with “chamber. […]” for “chamber.”

[3] = test system: taxane site of assembled cross-linked MTs; assay: Displacement of FTX2 from the taxane site (fluorescence polarization); assay type: binding, calf; conditions: 35 °C
Protocol: Purified calf brain tubulin and chemicals were obtained as previously described. Tau-mCherry was expressed and purified as described previously. Human Kif5B-EGFP (amino acids 1-905), containing a C terminal fluorescent-tag followed by a 3C protease cleavage site and a 6 × His-tag was expressed and purified as in with some modifications. Prior to purification, cells were resuspended in 1:1 ratio of lysis buffer (30 mM HEPES pH 7.5, 300 mM NaCl, 0.5 mM ATP, 5% glycerol, 20 mM imidazole, […]) supplemented with 1× Protease inhibitor cocktail and benzonase to the final concentration of 25 units/ml. Cells were homogenized by repeated pipetting. Cells were lysed by spinning for 45 min at 40,000 rpm in 45 Ti fixed-angle rotor (Beckman Coulter) at 4 °C. The supernatant was incubated with pre-equilibrated HisPUR NiNTA agarose resin (Thermo Fisher Scientific) for 1 h in a tightly closed gravity-flow column (Thermo Fisher Scientific) at 4 °C by slowly rotating. Subsequently, the resin was washed once lysis buffer and then with buffer B (30 mM HEPES pH 7.5, 300 mM NaCl, 0.5 mM ATP, 5% glycerol, 30 mM imidazole, […]). The protein was eluted from the resin after an overnight cleavage of the 6 × His-tag with 3C HRV protease in lysis buffer at 4 °C. The eluted protein was further purified via size exclusion chromatography on Superdex 200 10/300 GL column equilibrated in exclusion buffer (30 mM HEPES pH 7.5, 300 mM NaCl, 0.5 mM ATP, 5% glycerol, […]). Peak fractions were analyzed via SDS-PAGE, pooled and the protein was concentrated with Amicon Ultra-15 Centrifugal Filter tubes (Millipore). Purified proteins were aliquoted, snap-frozen in liquid N2, and stored at −80 °C.
The equilibrium binding constant of 1a and 1b to the taxane site of assembled MTs were determined by the displacement of FTX2 from the taxane site in cross-linked MTs. The displacement isotherm of each ligand was measured at least three times in two different plates with a fluorescence polarization microplate reader, as described. A mixture of 50 nM taxane binding sites and 50 nM FTX2 in GAB buffer was sampled in a 96-well plate. […] After mixing the samples for 10 min by shaking at 250 rpm, they were incubated 20 min at the desired temperatures (26, 35 or 42 °C) and their anisotropies were measured using a Spark Tecan plater reader in fluorescence polarization at emission of 535 nm and excitation of 485 nm. A sample containing 50 nM taxane binding sites was employed as blank, and a 50 nM solution of FTX2 in GAB, 0.1 mM GTP was employed as anisotropy standard. G factor was calculated as a mean over several cells in different conditions. The molar saturation fraction, X b , of the probe for each competitor concentration is calculated from the polarization values measured, P. Measurements of the polarization of FTX2 completely displaced (P 0 ) and, in absence of the competitor ligand (P sat), are required for data processing. The binding of FTX2 in the presence of the competitor ligand (X b = (P–P 0 /P sat – P 0 ) · X sat) was calculated and best fitted to the equilibrium binding constant of the competitor assuming unitary stoichiometry and the binding constant of the reference ligand (FTX2) with a PC program (Equigra v5).
Once the equilibrium binding constants are measured at different temperatures, the standard free energy of binding at a given temperature is calculated from the binding constant as ΔG 0app = −RT Ln K a, the standard enthalpy of the binding reaction is calculated from the representation of Ln K a versus 1/T (Van’t Hoff representation), and the slope of this representation multiplied by −R is equal to −ΔH 0app. The standard entropy of binding to ΔS 0app is calculated from the slope of the linear regression of ΔG 0app versus T.

Row | Compound | kinesin-1 landing rate on stabilized MTs [1] | kinesin-1 time bound on stabilized MTs [1] | kinesin-1 velocity on stabilized MTs [1] | Tau-mCherry coating of stabilized MTs [2] | incremental binding free energy (ΔΔG), PTX-to-derivative modification [3] [kJ mol^–1]
1 | Nc1nc2c(ncn2C2OC(COP(=O)(O)CP(=O)(O)OP(=O)(O)O)C(O)C2O)c(=O)[nH]1 (stereo not drawn) [GMPCPP, guanosine-5′-[(α,β)-methyleno]triphosphate] | decreased on GMPCPP compared with PTX | increased the time bound | decreased the velocity | bound diffusively | 
2 | CC(=O)OC1C(=O)C2(C)C(OC(=O)C(C)NC(=O)CCCCCNC(=O)c3ccc(-c4c5ccc(=O)cc-5oc5cc(O)ccc45)c(C(=O)O)c3)CC3OCC3(OC(C)=O)C2C(OC(=O)c2ccccc2)C2(O)CC(OC(=O)C(O)C(NC(=O)c3ccccc3)c3ccccc3)C(C)=C1C2(C)C (stereo not drawn) [HFX, Hexaflutax, reference compound] |  |  |  |  | 6.9
3 | Flutax-1 [reference compound] |  |  |  |  | −1.63
